Experimental data from patent US5891462A, “Composition for transdermal administration of an estrogen” (Permatec N.V., priority 1996, dated 1999).
Several values for one entry are separate records, joined by “and”; a condition that tells them apart may be missing. Equal entries are not always repeated. Entries after “also recorded” stand apart in the source; their conditions may differ. Where two headings read alike, the source gives them in different places.

Tests used:
[1] = cited from earlier work
[2] = clinical; set-up: species or system postmenopausal women; settings: human, in vivo
Description: The duration of the study was 3 days, thus 3 dose application were applied. Blood samples were taken at 0 h (basal value), 2, 6, 12, 24, 30, 36, 48, 54, 60, and 72 hs after the initiation of the study. Estradiol and norethindrone serum levels were determined by time-resolved fluoroimmunoassay and by enzyme immunoassay respectively.

[3] = transdermal; Balfour 1990; cited from earlier work
[4] = cited from earlier work; for Enhancement factor: normalized skin permeation rate with/without enhancer
[5] = In vitro permeation through abdominal guinea pig skin (vertical diffusion cell, HPLC); type: in vitro ADME; settings: for penetration enhancement at early and late times (in words): early 8 hs, late 16, 24 hs, occlusive
Excerpt: FIG. 3 an apparatus "Hanson P/N 57-VC" (vertical diffusion cell) is schematically represented 3 wherein:
The term "occlusive condition" used for the experimental tests carried out with the apparatus described in FIG. 3, means that the donor chamber (2) of the diffusion is closed by the top plate (3) i.e. not in communication with the external air. On the contrary the term "non occlusive condition" means that the top plate (3) has a hole allowing the free interaction between the formulation to be tested and the external air permitting the evaporation of the volatile solvents.
Furthermore, in vitro permeation experiments through abdominal guinea pig skin was made using the diffusion chamber that is schematically shown in FIG. 3.
Female guinea pigs, 8 to 16 months of age were shaved on their abdominal skin 72 hs. before sacrifice by cervical dislocation. […] A section of full thickness abdominal skin was surgically excised and mounted between the sections of a vertical diffusion cell having 1.77 sqcm of surface area, the epidermal facing up. A given amount of the pharmaceutical formulations exemplified above were spread over the epidermal layer whilst the dermal layer contact with a solution of sodium lauryl sulfate (SDS), at 34° C.
The experiments were conducted in two different conditions: in occlusive condition with a glass stopper, which avoid the evaporating of the volatile solvents, and in non occlusive condition, whereas the stopper used allow the evaporation of the volatile solvents.

[6] = Whitehead 1990; cited from earlier work
[7] = enhancer: Decylmethyl sulfoxide

SMILES: C[C@]12CC[C@@H]3c4ccc(O)cc4CC[C@H]3[C@@H]1CC[C@@H]2O [Estradiol, 17-β-estradiol]
- therapeutically effective daily dose of estrogen ([1]; Powers 1985): 40 to 50 µg/day
- serum levels of estradiol required for clinical efficacy ([1]; reviewed by Powers): 40 to 60 pg/mL
- Serum Levels of Estradiol (mean) [2]: 6,37 pg/ml
- concentration at 2 h ([2]; topical or ocular): 0.0328 ng/mL
- concentration at 6 h ([2]; topical or ocular): 0.0205 ng/mL
- concentration at 12 h ([2]; topical or ocular): 0.0268 ng/mL
- concentration at 24 h ([2]; topical or ocular): 0.0276 ng/mL
- concentration at 30 h ([2]; topical or ocular): 0.0393 ng/mL
- concentration at 36 h ([2]; topical or ocular): 0.0303 ng/mL
- concentration at 48 h ([2]; topical or ocular): 0.0359 ng/mL
- concentration at 54 h ([2]; topical or ocular): 0.0652 ng/mL
- concentration at 60 h ([2]; topical or ocular): 0.0487 ng/mL
- concentration at 72 h ([2]; topical or ocular): 0.0437 ng/mL
- effects on gonadotrophins, vaginal epithelium, bone resorption and menopausal symptoms [3]: comparable to those of oral and subcutaneous estrogens
- undesirable effects of oral estrogen on hepatic metabolism [3]: avoided
- Enhancement factor ([4]; enhancer: Azone): 20.17
- Enhancement factor [4, 7]: 12.59
- Enhancement factor ([4]; enhancer: Propyl myristate): 9.33
- Enhancement factor ([4]; enhancer: Propyl oleate): 14.62

SMILES: C[C@]12CCC(=O)C=C1CC[C@@H]1[C@@H]2[C@@H](O)C[C@@]2(C)[C@H]1CC[C@]2(O)C(=O)CO [Hydrocortisone]
- Enhancement factor ([4]; enhancer: Azone): 61.3
- Enhancement factor [4, 7]: 25.23
- Enhancement factor ([4]; enhancer: Propyl myristate): 4.57
- Enhancement factor ([4]; enhancer: Propyl oleate): 5.01

SMILES: COc1ccc2c(c1)c(CC(=O)O)c(C)n2C(=O)c1ccc(Cl)cc1 [Indomethacin]
- Enhancement factor ([4]; enhancer: Azone): 14.49
- Enhancement factor [4, 7]: 15.67
- Enhancement factor ([4]; enhancer: Propyl myristate): 3.77
- Enhancement factor ([4]; enhancer: Propyl oleate): 4.67

SMILES: C#C[C@]1(O)CC[C@H]2[C@@H]3CCC4=CC(=O)CC[C@@H]4[C@H]3CC[C@@]21C [Norethindrone, norethindrone]
- Serum Levels of Norethindrone (mean) [2]: 0.093 ng/mL
- Serum Levels of Norethindrone (mean) ([2]; topical or ocular, 2 h): 1.407 ng/mL
- Serum Levels of Norethindrone (mean) ([2]; topical or ocular, 6 h): 1.394 ng/mL
- Serum Levels of Norethindrone (mean) ([2]; topical or ocular, 12 h): 1.908 ng/mL
- Serum Levels of Norethindrone (mean) ([2]; topical or ocular, 24 h): 2.695 ng/mL
- Serum Levels of Norethindrone (mean) ([2]; topical or ocular, 30 h): 3.461 ng/mL
- Serum Levels of Norethindrone (mean) ([2]; topical or ocular, 36 h): 3.096 ng/mL
- Serum Levels of Norethindrone (mean) ([2]; topical or ocular, 48 h): 3.713 ng/mL
- Serum Levels of Norethindrone (mean) ([2]; topical or ocular, 54 h): 5.61 ng/mL
- Serum Levels of Norethindrone (mean) ([2]; topical or ocular, 60 h): 4.904 ng/mL
- Serum Levels of Norethindrone (mean) ([2]; topical or ocular, 72 h): 4.899 ng/mL

SMILES: CC(=O)[C@H]1CC[C@H]2[C@@H]3CCC4=CC(=O)CC[C@]4(C)[C@H]3CC[C@]12C [Progesterone]
- Enhancement factor ([4]; enhancer: Azone): 5.96
- Enhancement factor [4, 7]: 11.04
- Enhancement factor ([4]; enhancer: Propyl myristate): 4.56
- Enhancement factor ([4]; enhancer: Propyl oleate): 5.36

SMILES: CCCCCC(=O)O [caproic acid]
- enhancement of skin permeation of progesterone by fatty acids ([4]; progesterone, saturated fatty acid chain length, Chien): major enhancement effect

SMILES: CCCCCCCCCC(=O)O [decanoic acid]
- enhancement for estradiol by fatty acids ([4]; estradiol, U.S. Pat. No. 5,145,682): better enhancer for estradiol

SMILES: CCOCCOCCO [diethylene glycol monoethyl ether]
- penetration enhancement at early and late times (in words) [5]: excellent penetration enhancer at late times (16, 24 hs); also recorded: good penetration enhancer for late times; also recorded: enhances the permeation rates of the hormones in the later times

SMILES: CCCCCCCCCCCC(=O)O [lauric acid]
- enhancer comparison for naloxone ([4]; naloxone, Brian and Walters): better enhancer than lauryl alcohol

SMILES: CCCCCCCCCCCCO [lauryl alcohol]
- norethindrone acetate permeation enhancement (in words) ([5]; comparison of enhancers): two folds higher; also recorded: greater; also recorded: highest enhancement factor for norethindrone acetate; also recorded: most adequate enhancer
- penetration enhancement at early and late times (in words) [5]: good penetration enhancer at early time (8 hs); also recorded: good penetration enhancer for early times; also recorded: higher enhancement factor in the early times

SMILES: CCCCCCCCCCO [n-decanol]
- norethindrone acetate permeation enhancement (in words) ([5]; comparison of enhancers): greater

SMILES: C#C[C@]1(OC(C)=O)CC[C@H]2[C@@H]3CCC4=CC(=O)CC[C@@H]4[C@H]3CC[C@@]21C [norethindrone acetate]
- transdermal dose required to oppose estrogen hyperstimulation of the endometrium / therapeutically effective daily dose of progestin [6]: 200 to 300 µg/day and 200 to 250 µg/day

SMILES: CCCCCCCC/C=C\CCCCCCCCO [oleyl alcohol]
- estradiol permeation enhancement (in words) ([5]; comparison of enhancers): highest enhancement factor for estradiol
